Some test systems named below: CAKI-1 renal; HCT-15 colon; HOP-92 NSCLC; HS 578T breast; MALME-3M melanoma; MDA-MB-231 breast; NCI/ADR-RES ovarian; OVCAR-8 ovarian; RXF 393 renal; SF-539 CNS; SK-MEL-28 melanoma; SK-MEL-5 melanoma; SR leukemia; TK-10 renal.
Experiment in all cases: NCI-60 cell line screen, 48 h

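All cell lines were grown in 96-well plates and treated with compound for 48 hours. TGI is the concentration that stops growth completely.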

Take `Nc1ccccc1CCCC(=O)O`: the TGI with CAKI-1 renal, with HCT-15 colon, with HOP-92 NSCLC, in the assay on HS 578T breast, in the assay on MALME-3M melanoma and with MDA-MB-231 breast was over 100 µM in each case. For the same compound, the TGI in the assay on NCI/ADR-RES ovarian, in the assay on OVCAR-8 ovarian, with RXF 393 renal, in the assay with SF-539 CNS, in the assay with SK-MEL-28 melanoma and with SK-MEL-5 melanoma was over 100 µM in each case. The TGI with SR leukemia and in the assay on TK-10 renal was over 100 µM throughout.

Take `COCc1nc2c(OC)cc(-c3nc4nc(N5CCN(C)CC5)ccc4[nH]3)c(OC)c2[nH]1`: the TGI in the assay on CAKI-1 renal is over 100 µM; in the assay on HCT-15 colon, over 100 µM; in the assay on HOP-92 NSCLC, over 100 µM; with HS 578T breast, over 100 µM; in the assay with MALME-3M melanoma it was 44.2 µM; in the assay on MDA-MB-231 breast it was over 100 µM. The TGI with NCI/ADR-RES ovarian is over 100 µM; in the assay with OVCAR-8 ovarian it was over 100 µM; in the assay with RXF 393 renal it was over 100 µM; in the assay on SK-MEL-28 melanoma, over 100 µM; in the assay with SK-MEL-5 melanoma, 38.8 µM; in the assay on SR leukemia it was over 100 µM. Further, in the assay with TK-10 renal, the TGI is over 100 µM.

Regarding `COc1cc2c(cc1OCCCOc1cc(-c3ccc(F)cc3)nc(C)n1)N=C[C@@H]1CCCN1C2=O`, the TGI in the assay on CAKI-1 renal is 31.9 µM; in the assay on HCT-15 colon, 25.8 µM; in the assay on HOP-92 NSCLC, over 100 µM; with HS 578T breast, 94.3 µM; in the assay on MALME-3M melanoma, 27.3 µM; with MDA-MB-231 breast, 30 µM. Further, the TGI in the assay on OVCAR-8 ovarian is over 100 µM; with RXF 393 renal, 54.3 µM; with SF-539 CNS, 48.7 µM; with SK-MEL-28 melanoma, 44.1 µM; in the assay on SK-MEL-5 melanoma, 40.9 µM; in the assay on SR leukemia, 27.4 µM. In the assay with TK-10 renal, the TGI amounted to 34.5 µM.

In the case of `CCC(=O)Nc1ccc(N=Cc2cccc(Oc3ccccc3)c2)cc1`, the TGI in the assay with CAKI-1 renal, in the assay with HCT-15 colon, in the assay with HOP-92 NSCLC, with HS 578T breast, in the assay on MALME-3M melanoma and in the assay on NCI/ADR-RES ovarian was over 100 µM each time. Also, the TGI in the assay on OVCAR-8 ovarian was 49.1 µM; with RXF 393 renal, over 100 µM; in the assay on SF-539 CNS it was 35.9 µM; in the assay on SK-MEL-28 melanoma it was over 100 µM; in the assay on SK-MEL-5 melanoma, over 100 µM; in the assay with SR leukemia it was 67.9 µM.

With `Cn1c2ccccc2c2c(-c3ccccc3)[n+]3ccccc3nc21`, the TGI in the assay on CAKI-1 renal is over 100 µM; in the assay on HCT-15 colon, over 100 µM; with HOP-92 NSCLC, 39.7 µM; in the assay with HS 578T breast, over 100 µM; in the assay on MALME-3M melanoma it was 41.6 µM; with MDA-MB-231 breast, 97.5 µM. Besides, the TGI with NCI/ADR-RES ovarian is over 100 µM; in the assay on OVCAR-8 ovarian, over 100 µM; in the assay on SF-539 CNS, over 100 µM; with SK-MEL-28 melanoma, 46.7 µM; with SK-MEL-5 melanoma, 33.8 µM; with SR leukemia, 60.3 µM. Besides, in the assay with TK-10 renal, the TGI was found to be 85 µM.

Regarding `COC(=O)CCC(=O)CC(=O)C1=NS(=O)(=O)c2nc(S(N)(=O)=O)c(Cl)cc2N1`, the TGI in the assay on CAKI-1 renal, in the assay with HCT-15 colon, with HOP-92 NSCLC, in the assay on MALME-3M melanoma, in the assay with OVCAR-8 ovarian and in the assay with RXF 393 renal was over 100 µM in each case. Further, the TGI in the assay on SF-539 CNS, with SK-MEL-28 melanoma, with SK-MEL-5 melanoma, in the assay on SR leukemia and with TK-10 renal was over 100 µM in each case.

In the case of `CC(C)=CC1C(COC(=O)c2cc3c(cc2Cl)OCO3)C1(C)C` (configuration not stated), the TGI is 69.7 µM with CAKI-1 renal; 92.6 µM with HCT-15 colon; 78 µM in the assay on HOP-92 NSCLC; 53.8 µM in the assay on HS 578T breast; 41.6 µM in the assay on MALME-3M melanoma; over 100 µM in the assay with MDA-MB-231 breast. Also, the TGI in the assay with NCI/ADR-RES ovarian was over 100 µM; with OVCAR-8 ovarian, over 100 µM; with RXF 393 renal, 48.9 µM; with SK-MEL-28 melanoma, over 100 µM; in the assay on SK-MEL-5 melanoma it was 39.6 µM; in the assay on SR leukemia it was 78.3 µM. In addition, the TGI in the assay on TK-10 renal is over 100 µM.

On to `COc1cc(O)cc(/C=C/c2ccc(O)cc2)c1`, for which the TGI in the assay with CAKI-1 renal was 78.2 µM; in the assay on HCT-15 colon, 29.9 µM; in the assay on HOP-92 NSCLC, 91.9 µM; with HS 578T breast it was over 100 µM; in the assay with MALME-3M melanoma it was over 100 µM; in the assay on MDA-MB-231 breast it was 47.9 µM. In addition, the TGI in the assay on NCI/ADR-RES ovarian, with OVCAR-8 ovarian, with RXF 393 renal, with SF-539 CNS, in the assay on SK-MEL-28 melanoma and in the assay on SK-MEL-5 melanoma was over 100 µM each time. Also, the TGI in the assay on SR leukemia was over 100 µM; with TK-10 renal, 93.6 µM.

With `O=C(O)CNC(=O)CO/N=C1/C(c2c(O)[nH]c3ccccc23)=Nc2ccccc21`, the TGI in the assay on CAKI-1 renal, in the assay with HCT-15 colon, in the assay on HOP-92 NSCLC, in the assay with HS 578T breast, with MALME-3M melanoma and with MDA-MB-231 breast was over 100 µM throughout. Also, the TGI in the assay on NCI/ADR-RES ovarian, with OVCAR-8 ovarian, in the assay with RXF 393 renal, in the assay on SF-539 CNS, in the assay with SK-MEL-28 melanoma and in the assay on SK-MEL-5 melanoma was over 100 µM throughout. Besides, the TGI in the assay with SR leukemia and with TK-10 renal was over 100 µM each time.

Consider `CC1C(=O)OC2CC[N+]3(CC(=O)c4ccc(Br)cc4)CC=C(COC(=O)C(C)(O)C1(C)O)C23` (configuration not stated), for which the TGI was over 375 µM in the assay on CAKI-1 renal; over 375 µM in the assay with HCT-15 colon; over 375 µM with HOP-92 NSCLC; over 375 µM with MALME-3M melanoma; over 375 µM in the assay on NCI/ADR-RES ovarian; over 17.4 µM with OVCAR-8 ovarian. Further, the TGI with RXF 393 renal, with SF-539 CNS, with SK-MEL-28 melanoma and in the assay on SK-MEL-5 melanoma was over 375 µM each time.
